Experimental data reported in US12600728B2, “Interleukin-17 inhibitors” (priority 2020, dated 2026).
Read-outs that look alike come from different tables or passages of the source.

What was measured:
[1] = target: biotinylated human IL-17A / AF647-labeled human IL-17RA (Homo sapiens, UniProt Q16552); test: Human IL-17A×IL-17RA TR-FRET assay; type: binding
Method: Human IL-17A×IL-17RA TR-FRET Assay
Each compound concentration is tested in duplicate.
The final total assay volume is 10 μL.
Each plate contains test compounds in columns 1-22 and controls in columns 23 and 24. The neutral control (NC) contains all the assay components, but DMSO instead of test compound. […] The fluorescence values for emission at 615 nm and 665 nm are loaded to the evaluation software Helios.
From the activity data at each compound concentration, the IC50 values are obtained using the 4-parameter logistic function (“Hill-slope model”) of Helios.

[2] = target: recombinant human IL-17AA (Homo sapiens, UniProt Q16552); test: IL-6 release from NHDF cells, IL-17AA plus TNF-α stimulation; type: cell-based; conditions: 24 hours, IL-6 by ELISA
Method: IL-6 Release from NHDF Cells (Normal Human Dermal Fibroblasts)
NHDF cells isolated from normal adult mesoderm, connective tissues were cultured in fibroblast growth medium containing 2% supplement. […] The cells were allowed to adhere overnight before they were incubated with the compound/cytokine cocktail.
Diluted compounds were pre-incubated with recombinant human IL-17AA or IL-17AF plus human TNF-α for 30 minutes at room temperature on a shaker. […] The cells were incubated with the compound/cytokines cocktail for 24 hours at 37° C. (5% CO2). […] The final DMSO or plasma concentrations were 0.1% or 20%, respectively. All compound incubations were done in duplicate. The supernatants were collected to quantify IL-6 by ELISA according to the manufacturers instructions. The optical density was measured at 450 nm by an EnVision Multilabel Plate Reader (Perkin Elmer). The IL-6 levels produced after TNF-α stimulation were subtracted from the IL-6 produced after IL-17/TNF-α co-stimulation. These IL-17-specific IL-6 concentrations were used for […] value calculation.

[3] = TR-FRET, biotinylated human IL-17A 5 nM, AF647-labeled human IL-17RA 30 nM, read-out: IL17AA FRET/ IL17Rawt IC50
[4] = NHDF cells, IL-17AA 30 pM plus TNF-α 6 pM, read-out: IL17AA + TNF IC50 IL-6
[5] = TR-FRET, 5 nM IL-17A, 30 nM IL-17RA, read-out: IL17AA FRET/ IL17Rawt IC50
[6] = TR-FRET, 5 nM IL-17A, 30 nM IL-17RA, reference examples (pyridines), read-out: IL17AA FRET/ IL17RAwt IC50

Sequence of biotinylated human IL-17A / AF647-labeled human IL-17RA (Q16552 24-155): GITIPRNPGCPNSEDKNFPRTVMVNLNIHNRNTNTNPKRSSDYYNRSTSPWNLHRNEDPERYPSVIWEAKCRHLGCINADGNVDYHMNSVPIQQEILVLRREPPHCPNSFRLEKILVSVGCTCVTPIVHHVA
Sequence of recombinant human IL-17AA (Q16552 24-155): as above

| SMILES | IC50 [2, 4] [nM] | IC50 [1, 5] [nM] | other results |
| --- | --- | --- | --- |
| Cc1cc[n+]([O-])c(C)c1-c1ccc(NC(=O)[C@@H](NC(=O)c2ccnn2C)[C@H]2CC=C(F)CC2)cc1 (single isomer, unassigned) [Example 12a, 3-(4-((S)-2-((R)-4-fluorocyclohex-3-en-1-yl)-2-(1-methyl-1H-pyrazole-5-carboxamido)acetamido)phenyl)-2,4-dimethylpyridine 1-oxide or 3-(4-((S)-2-((S)-4-fluorocyclohex-3-en-1-yl)-2-(1-methyl-1H-pyrazole-5-carboxamido)acetamido)phenyl)-2,4-dimethylpyridine 1-oxide] | 17 |  | IC50 [1, 3]: 112 nM |
| Cc1cc[n+]([O-])c(C)c1-c1ccc(NC(=O)[C@@H](NC(=O)c2ccnn2C)[C@H]2CC=C(F)CC2)cc1 (single isomer, unassigned) [Example 12b, 3-(4-((S)-2-((R)-4-fluorocyclohex-3-en-1-yl)-2-(1-methyl-1H-pyrazole-5-carboxamido)acetamido)phenyl)-2,4-dimethylpyridine 1-oxide or 3-(4-((S)-2-((S)-4-fluorocyclohex-3-en-1-yl)-2-(1-methyl-1H-pyrazole-5-carboxamido)acetamido)phenyl)-2,4-dimethylpyridine 1-oxide] | 8 |  | IC50 [1, 3]: 151 nM |
| Cc1c(-c2ccc(NC(=O)C(NC(=O)c3ccnn3C)C3CC4C(C3)C4(F)F)cc2)c(Cl)cc[n+]1[O-] (single isomer, unassigned) [Example 54a] |  |  | IC50 ([1]; IL17AA FRET/ IL17Rawt IC50, TR-FRET, biotinylated human IL-17A 5 nM, AF647-labeled human IL-17RA 30 nM): 28 nM; IC50 ([2]; IL17AA + TNF IC50 IL-6, NHDF cells, IL-17AA 30 pM plus TNF-α 6 pM): 34 nM |
| Cc1nocc1C(=O)NC(C(=O)Nc1ccc(-c2c(Cl)cc[n+]([O-])c2C)cc1)C1CC2CC2C1 (single isomer, unassigned) [Example 146] |  |  | IC50 ([2]; NHDF cells, IL-17AA 30 pM + TNF-α 6 pM, read-out: IL17AA + TNF IC50 IL-6): 57 nM |
| Cc1cc[n+]([O-])c(C)c1-c1ccc(NC(=O)C(NC(=O)c2ccc3n2CCN(C)C3)C(C)c2ccccc2Cl)cc1 (centres unmarked) [Example 212, 3-(4-(3-(2-chlorophenyl)-2-(2-methyl-1,2,3,4-tetrahydropyrrolo[1,2-a]pyrazine-6-carboxamido)butanamido)phenyl)-2,4-dimethylpyridine 1-oxide] |  | 502 |  |
| Cc1cc[n+]([O-])c(C)c1-c1ccc(NC(=O)[C@@H](NC(=O)c2ccc3n2CCNC3)C(C)c2ccccc2Cl)cc1 (stereo partly drawn) [Example 216, 3-(4-((2S)-3-(2-chlorophenyl)-2-(1,2,3,4-tetrahydropyrrolo[1,2-a]pyrazine-6-carboxamido)butanamido)phenyl)-2,4-dimethylpyridine 1-oxide] |  | 796 |  |
| CCn1nccc1C(=O)N[C@H](C(=O)Nc1ccc(-c2c(C(F)(F)F)cc[n+]([O-])c2C)cc1)C1CC2CC2C1 (stereo partly drawn) [Example 223, 3-(4-((2S)-2-(bicyclo[3.1.0]hexan-3-yl)-2-(1-ethyl-1H-pyrazole-5-carboxamido)acetamido)phenyl)-2-methyl-4-(trifluoromethyl)pyridine 1-oxide] |  | 9080 |  |
| Cc1nccc(Cl)c1-c1ccc(NC(=O)[C@@H](NC(=O)c2ccnn2C)C2CCCCC2)cc1F [compound 137, N-((1S)-2-((4-(4-chloro-2-methylpyridin-3-yl)-3-fluorophenyl)amino)-1-cyclohexyl-2-oxoethyl)-1-methyl-1H-pyrazole-5-carboxamide, reference compound] |  |  | IC50 ([2]; NHDF cells, IL-17AA 30 pM + TNF-α 6 pM, reference examples (pyridines), read-out: IL 17AA + TNF IC50 IL-6): 578 nM |
| CCc1nocc1C(=O)N[C@H](C(=O)Nc1ccc(-c2c(Cl)ccnc2C)cc1)[C@H]1CCCC(F)(F)C1 [compound 140, N-((S)-2-((4-(4-chloro-2-methylpyridin-3-yl)phenyl)amino)-1-((S)-3,3-difluorocyclohexyl)-2-oxoethyl)-3-ethylisoxazole-4-carboxamide, reference compound] |  |  | IC50 [1, 6]: 1220 nM |
| CCn1nccc1C(=O)N[C@H](C(=O)Nc1ccc(-c2c(C)ccnc2C)cc1)[C@H]1CC[C@H](C(F)(F)F)CC1 [compound 141, N-((S)-2-((4-(2,4-dimethylpyridin-3-yl)phenyl)amino)-2-oxo-1-((1r,4S)-4-(trifluoromethyl)cyclohexyl)ethyl)-1-ethyl-1H-pyrazole-5-carboxamide, reference compound] |  |  | IC50 [1, 6]: 2630 nM |
| CCc1nocc1C(=O)N[C@H](C(=O)Nc1ccc(-c2c(C)ccnc2C)cc1)[C@H]1CC[C@H](C(F)(F)F)CC1 [compound 142, N-((S)-2-((4-(2,4-dimethylpyridin-3-yl)phenyl)amino)-2-oxo-1-((1r,4S)-4-(trifluoromethyl)cyclohexyl)ethyl)-3-ethylisoxazole-4-carboxamide, reference compound] |  |  | IC50 [1, 6]: 4380 nM |
| Cc1nocc1C(=O)N[C@H](C(=O)Nc1ccc(-c2c(C(F)(F)F)ccnc2C)cc1)[C@H]1CCCC(F)(F)C1 [compound 143, N-((S)-1-((S)-3,3-difluorocyclohexyl)-2-((4-(2-methyl-4-(trifluoromethyl)pyridin-3-yl)phenyl)amino)-2-oxoethyl)-3-methylisoxazole-4-carboxamide, reference compound] |  |  | IC50 [1, 6]: 851 nM |

Continued, in another order:

| IC50 [2, 4] [nM] | IC50 [1, 5] [nM] | SMILES | other results |
| --- | --- | --- | --- |
| 232 |  | CCc1nocc1C(=O)N[C@H](C(=O)Nc1ccc(-c2c(C)cc[n+]([O-])c2C)cc1)C1CCC(F)(F)C1 (mixture of isomers) [Example 86, 3-(4-((2S)-2-(3,3-difluorocyclopentyl)-2-(3-ethylisoxazole-4-carboxamido)acetamido)phenyl)-2,4-dimethylpyridine 1-oxide] | IC50 [1, 3]: 119 nM |
| 37 |  | Cc1c(-c2ccc(NC(=O)[C@@H](NC(=O)c3ccnn3C)C3CCCCC3)cc2F)c(Cl)cc[n+]1[O-] (single isomer, unassigned) [Example 2a] | IC50 [1, 3]: 49 nM |
| 14 |  | Cc1c(-c2ccc(NC(=O)[C@@H](NC(=O)c3ccnn3C)C3CCCCC3)cc2F)c(Cl)cc[n+]1[O-] (single isomer, unassigned) [Example 2b] | IC50 [1, 3]: 17 nM |
| 11 |  | CCn1nccc1C(=O)N[C@H](C(=O)Nc1ccc(-c2c(Cl)cc[n+]([O-])c2C)cc1)C1CCC(F)(F)CC1 (single isomer, unassigned) [Example 13a] | IC50 [1, 3]: 16 nM |
| 115 |  | Cc1c(-c2ccc(NC(=O)[C@@H](NC(=O)c3ccnn3C)C3CCCCC3)cc2F)ccc[n+]1[O-] [Example 83, (S)-3-(4-(2-cyclohexyl-2-(1-methyl-1H-pyrazole-5-carboxamido)acetamido)-2-fluorophenyl)-2-methylpyridine 1-oxide] |  |
| 8 |  | Cc1c(-c2ccc(NC(=O)[C@@H](NC(=O)c3ccnn3C)[C@H]3CCCC(F)(F)C3)cc2F)c(Cl)cc[n+]1[O-] [Example 110, 4-chloro-3-(4-((S)-2-((S)-3,3-difluorocyclohexyl)-2-(1-methyl-1H-pyrazole-5-carboxamido)acetamido)-2-fluorophenyl)-2-methylpyridine 1-oxide] |  |
|  | 499 | Cc1c(-c2ccc(NC(=O)C(NC(=O)c3ccc4n3CCNC4)[C@@H]3C[C@@H]4[C@H](C3)C4(F)F)cc2)c(Cl)cc[n+]1[O-] (stereo partly drawn) [Example 211, 4-chloro-3-(4-(2-((1R,3s,5S)-6,6-difluorobicyclo[3.1.0]hexan-3-yl)-2-(1,2,3,4-tetrahydropyrrolo[1,2-a]pyrazine-6-carboxamido)acetamido)phenyl)-2-methylpyridine 1-oxide] |  |
|  | 690 | Cc1cc[n+]([O-])c(C)c1-c1ccc(NC(=O)[C@@H](NC(=O)c2ccc3n2CCN(C)C3)C2CCC(F)CC2)cc1 (stereo partly drawn) [Example 214, 3-(4-((2S)-2-(4-fluorocyclohexyl)-2-(2-methyl-1,2,3,4-tetrahydropyrrolo[1,2-a]pyrazine-6-carboxamido)acetamido)phenyl)-2,4-dimethylpyridine 1-oxide] |  |
|  | 2310 | Cc1cc[n+]([O-])c(C)c1-c1ccc(NC(=O)C(NC(=O)c2ccc3n2CCNC3)C2CCC(C)CC2)cc1 [Example 220, 2,4-dimethyl-3-(4-((S)-2-((1r,4S)-4-methylcyclohexyl)-2-(1,2,3,4-tetrahydropyrrolo[1,2-a]pyrazine-6-carboxamido)acetamido)phenyl)pyridine 1-oxide] |  |
|  | 7290 | Cc1cc[n+]([O-])c(C)c1-c1ccc(NC(=O)C(NC(=O)c2ccnn2C)C2CC(F)CC(F)C2)cc1 (centres unmarked) [Example 222, 3-(4-(2-(3,5-difluorocyclohexyl)-2-(1-methyl-1H-pyrazole-5-carboxamido)acetamido)phenyl)-2,4-dimethylpyridine 1-oxide] |  |
